Assay results reported in US11253589B2, “Modulation of the immune response” (priority 2007, dated 2022).

Key:
[1] = in vivo; cited from earlier work
CD4+Foxp3:GFP- T cells = test: In vitro conversion of CD4+Foxp3:GFP- T cells into Treg; type: cell-based, mouse; conditions: antibodies to CD3 and CD28 in the presence of TCDD, 5 days
Procedure: CD4+ T cells were purified from Foxp3gfp knock in mice using anti-CD4 beads (Miltenyi, Auburn, Calif., USA) and sorted (FACSAria™ cell sorter, BD Biosciences) into naive CD4^+ Foxp3:GFP^− or CD4^+ Foxp3:GFP T cells. CD4^+ Foxp3:GFP^− T cells were stimulated with plate bound 1 μg/ml of anti-CD3 (145-2C11, eBioscience) and 2 μg/ml of anti-CD28 (37.51, eBioscience) for 5 days, supplemented with recombinant IL-2 (50 U/ml) at day 2 and 4, and analyzed by FACS at day 5 for their differentiation into […]. TGFβ1 (2.5 ng/ml) was used as a positive control.
To establish if TCDD triggered the conversion of CD4^+Foxp3^− T cells into new Foxp3^+ Treg cells, FACS sorted CD4^+Foxp3:GFP− T cells were activated in vitro with antibodies to CD3 and CD28 in the presence of TCDD, and the generation of CD4^+Foxp3:GFP^+ Treg was followed by FACS. TGFb1 was used as a positive control.

CD4+ Foxp3+ Treg = test: CD4+Foxp3+ Treg levels in AHR-d mice; type: in vivo; conditions: TCDD 1 μg/mouse
Description: To confirm that the effects on EAE were mediated by the activation of AHR, we used C57BL/6 mice carrying the d allele of the ahr gene (AHR-d mice). This allele codes for a mutant AHR with a 10 fold reduction in its affinity for TCDD and other ligands (Okey et al., Mol Pharmacol. 35, 823-30 (1989)) due to mutations in its ligand binding sites.

[2] = system: CD4+Foxp3:GFP- 2D2 T cells; test: In vivo conversion of transferred CD4+Foxp3:GFP- 2D2 T cells into Treg; conditions: recipients given 1 μg/mouse TCDD, immunized 2 days later with MOG35-55
Procedure: To investigate if new Treg could also be generated in vivo following TCDD administration, we transferred CD4^+Foxp3:GFP^− 2D2 T cells from CD90.2 donors into wild type CD90.1 recipients. CD4^+Foxp3:GFP^− 2D2 T cells express a MOG35-55-specific T cell receptor. The recipients were administered 1 μg/mouse TCDD and were immunized 2 days later with MOG35-55. CD4^+Foxp3:GFP^+ CD90.2 T cells (donor cells that underwent conversion into Treg upon treatment with TCDD) were then quantified by FACS.

Structure (SMILES)	toxic effects [1]	conversion of cells in culture into CD4+Foxp3:GFP+ Treg (CD4+Foxp3:GFP- T cells)	levels of CD4+ Foxp3+ Treg (CD4+ Foxp3+ Treg)	conversion of CD4+Foxp3:GFP- CD90.2 donor T cells into Treg cells [2]
COC(=O)c1csc(C(=O)c2c[nH]c3ccccc23)n1 [ITE, 2-(1′H-indole-3′-carbonyl)-thiazole-4-carboxylic acid methyl ester]	do not display the toxic effects			
Clc1cc2c(cc1Cl)Oc1cc(Cl)c(Cl)cc1O2 [TCDD, 2,3,7,8 tetrachlorodibenzo-p-dioxin]		approximately 13%	did not increase the levels	significant
